Assay results: ChEMBL document CHEMBL1201862, “PubChem BioAssay data set” (2004)
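Step 1: Grow cells in 96-well plates. Step 2: Expose to compound for 48 hours at 5 concentrations. Step 3: Interpolate endpoints linearly; if unreached, use highest concentration. GI50 = concentration required for 50% inhibition of growth.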 The source made the active and inactive calls. Rule as the data show it: active = GI50 up to about 1.1 µM and inactive = higher.

Assays:
Test in all cases: inhibition of tumour cell growth, NCI panel, 48 h
U-251 = test system: U-251
HCT-116 = test system: HCT-116
ACHN = test system: ACHN
SF-268 = test system: SF-268
HCC 2998 = test system: HCC 2998
SR = test system: SR
UACC-257 = test system: UACC-257
HOP-92 = test system: HOP-92
DU-145 = test system: DU-145
M14 = test system: M14
NCI-H226 = test system: NCI-H226
SN12C = test system: SN12C
RPMI-8226 = test system: RPMI-8226
LOX IMVI = test system: LOX IMVI
CAKI-1 = test system: CAKI-1
SNB-75 = test system: SNB-75
HL-60 = test system: HL-60
SK-MEL-2 = test system: SK-MEL-2
SK-OV-3 = test system: SK-OV-3
UO-31 = test system: UO-31

SMILES	GI50 (U-251)	GI50 (HCT-116)	GI50 (ACHN)	GI50 (SF-268)	GI50 (HCC 2998)	GI50 (SR)	GI50 (UACC-257)	GI50 (HOP-92)	GI50 (DU-145)	GI50 (M14)	GI50 (NCI-H226)	GI50 (SN12C)	GI50 (RPMI-8226)	GI50 (LOX IMVI)	GI50 (CAKI-1)	GI50 (SNB-75)	GI50 (HL-60)	GI50 (SK-MEL-2)	GI50 (SK-OV-3)	GI50 (UO-31)
COc1cc(-c2oc3c(OC)c(O)cc(O)c3c(=O)c2OC)ccc1O	3.66 µM (inactive)	6.4 µM (inactive)	3.99 µM (inactive)	3.08 µM (inactive)	10.9 µM (inactive)	3.24 µM (inactive)	26 µM (inactive)	3.83 µM (inactive)	7.06 µM (inactive)	4.12 µM (inactive)	12.9 µM (inactive)	13.1 µM (inactive)	4.09 µM (inactive)	4.12 µM (inactive)	3.13 µM (inactive)	4.02 µM (inactive)	3.56 µM (inactive)	2.75 µM (inactive)	1.55 µM (inactive)	3.08 µM (inactive)
CC(=O)N1CCN(C23OC4(N5CCN(C(C)=O)CC5)C5C6CC(C7C6C4C72)C53)CC1 (configuration not stated)	> 100 µM (inactive)	> 100 µM (inactive)	> 100 µM (inactive)	> 100 µM (inactive)	> 100 µM (inactive)	> 100 µM (inactive)	> 100 µM (inactive)	> 100 µM (inactive)	> 100 µM (inactive)	> 100 µM (inactive)	> 100 µM (inactive)	> 100 µM (inactive)	> 100 µM (inactive)	> 100 µM (inactive)	> 100 µM (inactive)	> 100 µM (inactive)	> 100 µM (inactive)	> 100 µM (inactive)	> 100 µM (inactive)	> 100 µM (inactive)
CC1(C=O)CCC23COC4(CCC5C6(C)CCC(OC7OCC(OC8OC(CO)C(O)C(OC9OC(CO)C(O)C(O)C9O)C8OC8OCC(O)C(O)C8O)C(O)C7OC7OC(CO)C(O)C(O)C7O)C(C)(C)C6CCC5(C)C4(C)CC2O)C3C1 (configuration not stated)	2.34 µM (inactive)	1.44 µM (inactive)	1.3 µM (inactive)	1.14 µM (inactive)	1.01 µM (active)	0.132 µM (active)	1.75 µM (inactive)	0.381 µM (active)	1.46 µM (inactive)	1.52 µM (inactive)	1.8 µM (inactive)		1.71 µM (inactive)	1.24 µM (inactive)	1.12 µM (active)	1.26 µM (inactive)	0.356 µM (active)	1.57 µM (inactive)	1.28 µM (inactive)	1.48 µM (inactive)
Cc1c(-c2ccccc2)c(C#N)c2nnn(-c3ccc(Cl)cc3)c(=O)n12	13.8 µM (inactive)	12.8 µM (inactive)	4.26 µM (inactive)	32.6 µM (inactive)	10.6 µM (inactive)	8.53 µM (inactive)	35.8 µM (inactive)	> 100 µM (inactive)	38.5 µM (inactive)	5.08 µM (inactive)	66.7 µM (inactive)	35.2 µM (inactive)	23.5 µM (inactive)	0.714 µM (active)	13.3 µM (inactive)	30.9 µM (inactive)	4.43 µM (inactive)	26.8 µM (inactive)	89.7 µM (inactive)	22.5 µM (inactive)
CC(C)(C)[Si](C)(C)OCC1CCC(n2cnc3c(NC(=O)c4ccccc4)ncnc32)O1 (configuration not stated)	18.2 µM (inactive)	19 µM (inactive)	19.2 µM (inactive)	17.7 µM (inactive)	19.5 µM (inactive)	29.9 µM (inactive)	18.7 µM (inactive)	16.6 µM (inactive)	19.4 µM (inactive)	16.7 µM (inactive)	15.1 µM (inactive)	18 µM (inactive)	33 µM (inactive)	20.2 µM (inactive)	21.4 µM (inactive)	10.4 µM (inactive)	18 µM (inactive)	19 µM (inactive)	20 µM (inactive)	1.54 µM (inactive)
O=[N+]([O-])c1cccc2nc3ccccc3c(NCCCN3CCCCC3)c12	< 0.0135 µM (active)	< 0.01 µM (active)	0.0139 µM (active)	0.0191 µM (active)	< 0.01 µM (active)	< 0.01 µM (active)	0.0219 µM (active)	< 0.01 µM (active)	< 0.01 µM (active)	0.0116 µM (active)	0.0169 µM (active)	< 0.0105 µM (active)	< 0.01 µM (active)	0.0194 µM (active)	0.0312 µM (active)	0.0205 µM (active)	0.0252 µM (active)	0.0148 µM (active)	0.028 µM (active)	0.0237 µM (active)
CCOC(=O)c1cnccc1CC1(C#N)c2ccccc2C=CN1C(=O)c1ccccc1 (configuration not stated)	37.3 µM (inactive)	29.2 µM (inactive)	39.4 µM (inactive)	23.6 µM (inactive)	30.3 µM (inactive)	26.8 µM (inactive)	34.7 µM (inactive)	37.5 µM (inactive)	35.6 µM (inactive)	24.3 µM (inactive)	43.9 µM (inactive)	29 µM (inactive)	4.91 µM (inactive)	24.1 µM (inactive)	27.2 µM (inactive)	12.9 µM (inactive)	18.5 µM (inactive)	21.6 µM (inactive)	26.1 µM (inactive)	27.2 µM (inactive)
CCN(CC)CCN(C)c1ccc(CO)c2c1c(=O)c1ccccc1[s+]2[O-] (configuration not stated)	1.69 µM (inactive)	1.88 µM (inactive)	11.1 µM (inactive)	16.5 µM (inactive)	1.43 µM (inactive)	2.28 µM (inactive)	2 µM (inactive)	8.89 µM (inactive)	14.6 µM (inactive)	2.11 µM (inactive)	17.7 µM (inactive)	15.2 µM (inactive)	2.83 µM (inactive)	1.78 µM (inactive)	13.2 µM (inactive)	14.8 µM (inactive)	16.8 µM (inactive)	19.9 µM (inactive)	16.1 µM (inactive)	16.3 µM (inactive)
N=c1oc2ccccc2cc1-c1nc2ccccc2c(=O)[nH]1	32 µM (inactive)	42.9 µM (inactive)	22.1 µM (inactive)	29 µM (inactive)	90.2 µM (inactive)	42.9 µM (inactive)	> 100 µM (inactive)	20 µM (inactive)	> 100 µM (inactive)	> 100 µM (inactive)	29.7 µM (inactive)	> 100 µM (inactive)	> 100 µM (inactive)	54.5 µM (inactive)	> 100 µM (inactive)	2.72 µM (inactive)	45.7 µM (inactive)	58.9 µM (inactive)	> 100 µM (inactive)	27.1 µM (inactive)
CCOC1CN=C(Nc2cccc3ccccc23)S1 (configuration not stated)	> 10 µM (inactive)	> 10 µM (inactive)	> 10 µM (inactive)	> 10 µM (inactive)	> 10 µM (inactive)	> 10 µM (inactive)	> 10 µM (inactive)	> 10 µM (inactive)	> 10 µM (inactive)	> 10 µM (inactive)	> 10 µM (inactive)	> 10 µM (inactive)	> 10 µM (inactive)	> 10 µM (inactive)	> 10 µM (inactive)	> 10 µM (inactive)	> 10 µM (inactive)	> 10 µM (inactive)	> 10 µM (inactive)	
C/C(=N\NC(=S)N1CCCCC1)c1nc2cccnc2[nH]1	9.46 µM (inactive)	4.19 µM (inactive)	3.95 µM (inactive)	5.51 µM (inactive)	20.2 µM (inactive)	3.64 µM (inactive)	8 µM (inactive)	7.48 µM (inactive)	14.7 µM (inactive)	7.46 µM (inactive)	8.53 µM (inactive)	19.7 µM (inactive)	4.33 µM (inactive)	7.83 µM (inactive)	13.2 µM (inactive)	38.4 µM (inactive)	3.35 µM (inactive)	22 µM (inactive)	41.6 µM (inactive)	4.24 µM (inactive)
COC1=C(OC)C(=O)C(Sc2ccc3ccccc3c2)=CC1=O	4.89 µM (inactive)	4.58 µM (inactive)	8.28 µM (inactive)	9.86 µM (inactive)	11.6 µM (inactive)	2.09 µM (inactive)	7.69 µM (inactive)	19 µM (inactive)	14.5 µM (inactive)	4.35 µM (inactive)	6.03 µM (inactive)	7.87 µM (inactive)	0.678 µM (active)	3.54 µM (inactive)	14.7 µM (inactive)	12.8 µM (inactive)	0.716 µM (active)	13.6 µM (inactive)	16.1 µM (inactive)	6.11 µM (inactive)
O=C1c2ccccc2-c2nc(-c3ccncc3)cc3c2c1nc1ccccc13	14.9 µM (inactive)	6.4 µM (inactive)	8.32 µM (inactive)		18.7 µM (inactive)	2.38 µM (inactive)	19.1 µM (inactive)	> 100 µM (inactive)	14.8 µM (inactive)	3.21 µM (inactive)	16.6 µM (inactive)	15.1 µM (inactive)	11.4 µM (inactive)	14.5 µM (inactive)	> 100 µM (inactive)	32.5 µM (inactive)	11 µM (inactive)	11.3 µM (inactive)	> 100 µM (inactive)	9.71 µM (inactive)
